Data taken from patent US20110190235A1, “BORON-CONTAINING SMALL MOLECULES AS ANTIPROTOZOAL AGENTS” (Anacor Pharmaceuticals, Inc., priority 2009, published 2011).
pIC50: −log10 of the molar value. In brackets after ≈: the same amount, converted by molar mass. Read-outs that look alike come from different tables or passages of the source.

Legend:
[1] = L929 cytotoxicity evaluation (resazurin); assay type: cell-based; settings: mouse, L929 mouse fibroblast cells; 72 hrs incubation; read-out: Cytotox L-929 IC50
Method: For evaluation of compound effects on mammalian cells, L929 mouse fibroblast cells were used. Cells were maintained as adherent cultures in T-25 vented cap flasks in a humidified incubator at 37° C. in the presence of 5% CO2. Culture media was D-MEM supplemented with 10% fetal bovine serum and 1% penicillin/streptomycin. L929 cells were maintained below confluent levels by sub-culturing at 1:10 dilution twice weekly using 0.05% trypsin for detachment.
Sub-confluent L929 cells were trypsinized, resuspended in fresh media and 10 uL was counted using hemocytometer to determine cell concentration. Cells were diluted to 1×10^4/mL in DMEM, dispensed (100 uL) into 96-well plates using a Multidrop 384 dispenser and allowed to attach overnight. Spent media was replaced with 99.5 uL fresh D-MEM and compounds to be tested were serially diluted in DMSO and 0.5 uL added using a Biomek NX liquid handler. Plates were incubated with compounds for 72 hrs at 37° C. with 5% CO2. Resazurin (20 uL of 12.5 mg/ml stock) from Sigma-Aldrich was added to each well and plates were incubated for an additional 3-4 hrs. Assay plates were read using an EnVision plate reader at an excitation wavelength of 544 nm and emission of 590 nm. Single data points were used to generate sigmoidal dose response curves and determine IC50 values using XLfit curve fitting software from IDBS (Guildford, UK).

[2] = system: bloodstream-form trypanosome T. brucei brucei 427 strain; test: Trypanosoma brucei brucei high-throughput in vitro drug sensitivity assay (resazurin); assay type: cell-based; settings: for Selectivity Index (L929 IC50 / T. b. brucei IC50): T. b. brucei vs L929; for pIC50 / IC50: Trypanosoma brucei, 72 hrs incubation; for pIC50: read-out: T. b. brucei IC50; for IC50: read-out: T.b. brucei IC50

For COc1cccc(C(=O)Nc2ccc3c(c2)B(O)OC3C)c1 (stereo not drawn) [compound 6, N-(1-Hydroxy-3-methyl-1,3-dihydro-benzo[c][1,2]oxaborol-6-yl)-3-methoxy-benzamide], the IC50 at 72 h [1] was > 10 µg/mL, the “Selectivity Index (L929 IC50 / T. b. brucei IC50)” value [2] was >217 and the pIC50 [2] was 6.81. It also gave an IC50 [2] of 0.046 µg/mL.

In the case of CC1OB(O)c2cc(NC(=O)c3cccc(F)c3)ccc21 (stereo not drawn) [compound 10, 3-Fluoro-N-(1-hydroxy-3-methyl-1,3-dihydro-benzo[c][1,2]oxaborol-6-yl)-benzamide], the IC50 at 72 h [1] was > 10 µg/mL, the “Selectivity Index (L929 IC50 / T. b. brucei IC50)” value [2] was >207 and the pIC50 [2] was 6.89. For the same compound, the IC50 [2] was 0.037 µg/mL.

With CC1OB(O)c2cc(NC(=O)c3cccc(Cl)c3)ccc21 (stereo not drawn) [compound 11, 3-Chloro-N-(1-hydroxy-3-methyl-1,3-dihydro-benzo[c][1,2]oxaborol-6-yl)-benzamide] the IC50 at 72 h [1] was 6.06 µg/mL (≈ 20.1 µM), the “Selectivity Index (L929 IC50 / T. b. brucei IC50)” value [2] was 168 and the pIC50 [2] was 6.92. For the same compound, the IC50 [2] was 0.036 µg/mL.

For CC1OB(O)c2cc(NC(=O)c3ccccc3I)ccc21 (stereo not drawn) [compound 15, N-(1-Hydroxy-3-methyl-1,3-dihydro-benzo[c][1,2]oxaborol-6-yl)-2-iodo-benzamide], the IC50 at 72 h [1] was 2.45 µg/mL (≈ 6.23 µM), the “Selectivity Index (L929 IC50 / T. b. brucei IC50)” value [2] was 36 and the pIC50 [2] was 6.76. It also gave an IC50 [2] of 0.068 µg/mL.

In the case of CC1OB(O)c2cc(NC(=O)c3ccc(F)cc3Br)ccc21 (stereo not drawn) [compound 16, 2-Bromo-4-fluoro-N-(1-hydroxy-3-methyl-1,3-dihydro-benzo[c][1,2]oxaborol-6-yl)-benzamide], the IC50 at 72 h [1] was 3.06 µg/mL (≈ 8.41 µM), the “Selectivity Index (L929 IC50 / T. b. brucei IC50)” value [2] was 29 and the pIC50 [2] was 6.53. It also gave an IC50 [2] of 0.107 µg/mL.

With O=C(Nc1ccc2c(c1)B(O)OC2C1CCCC1)c1ccccc1Cl (stereo not drawn) [compound 18, 2-Chloro-N-(3-cyclopentyl-1-hydroxy-1,3-dihydro-benzo[c][1,2]oxaborol-6-yl)-benzamide] the IC50 at 72 h [1] was 9.29 µg/mL (≈ 26.1 µM), the “Selectivity Index (L929 IC50 / T. b. brucei IC50)” value [2] was 2 and the pIC50 [2] was 4.93. It also gave an IC50 [2] of 4.22 µg/mL.

For O=C(Nc1ccc2c(c1)B(O)OC2C1CCCC1)c1ccc(F)cc1 (stereo not drawn) [compound 20, N-(3-Cyclopentyl-1-hydroxy-1,3-dihydro-benzo[c][1,2]oxaborol-6-yl)-4-fluoro-benzamide], the IC50 at 72 h [1] was > 10 µg/mL, the pIC50 [2] was < 4.84 and the IC50 [2] was > 5 µg/mL.

In the case of CC(=O)Nc1ccc2c(c1)B(O)OC2C1CCCC1 (stereo not drawn) [compound 21, N-(3-Cyclopentyl-1-hydroxy-1,3-dihydro-benzo[c][1,2]oxaborol-6-yl)-acetamide], the IC50 at 72 h [1] was > 10 µg/mL, the pIC50 [2] was < 4.71 and the IC50 [2] was > 5 µg/mL.

For CC(C)CC1OB(O)c2cc(NC(=O)c3ccccc3C(F)(F)F)ccc21 (stereo not drawn) [compound 22, N-(1-Hydroxy-3-isobutyl-1,3-dihydro-benzo[c][1,2]oxaborol-6-yl)-2-trifluoromethyl-benzamide], the IC50 at 72 h [1] was > 10 µg/mL, the “Selectivity Index (L929 IC50 / T. b. brucei IC50)” value [2] was >12 and the pIC50 [2] was 5.64. The IC50 [2] was 0.866 µg/mL.

With CC(C)CC1OB(O)c2cc(NC(=O)c3ccc(F)cc3)ccc21 (stereo not drawn) [compound 24, 4-Fluoro-N-(1-hydroxy-3-isobutyl-1,3-dihydro-benzo[c][1,2]oxaborol-6-yl)-benzamide] the IC50 at 72 h [1] was > 10 µg/mL, the pIC50 [2] was < 4.82 and the IC50 [2] was > 5 µg/mL.

In the case of CC(C)CC1OB(O)c2cc(NC(=O)c3ccccc3Cl)ccc21 (stereo not drawn) [compound 25, 2-Chloro-N-(1-hydroxy-3-isobutyl-1,3-dihydro-benzo[c][1,2]oxaborol-6-yl)-benzamide], the IC50 at 72 h [1] was > 10 µg/mL, the pIC50 [2] was < 4.84 and the IC50 [2] was > 5 µg/mL.

With Cc1ccccc1C(=O)Nc1ccc2c(c1)B(O)OC2(C)C [compound 27, N-(1-Hydroxy-3,3-dimethyl-1,3-dihydro-benzo[c][1,2]oxaborol-6-yl)-2-methylbenzamide] the IC50 at 72 h [1] was > 10 µg/mL and the IC50 [2] was 2.24 µg/mL.

For Cc1cccc(C(=O)Nc2ccc3c(c2)B(O)OC3(C)C)c1 [compound 28, N-(1-Hydroxy-3,3-dimethyl-1,3-dihydro-benzo[c][1,2]oxaborol-6-yl)-3-methyl-benzamide], the IC50 at 72 h [1] was > 10 µg/mL and the IC50 [2] was 3.17 µg/mL.

In the case of Cc1ccc(C(=O)Nc2ccc3c(c2)B(O)OC3(C)C)cc1 [compound 29, N-(1-Hydroxy-3,3-dimethyl-1,3-dihydro-benzo[c][1,2]oxaborol-6-yl)-4-methyl-benzamide], the IC50 at 72 h [1] was > 10 µg/mL and the IC50 [2] was 3.62 µg/mL.

In the case of CCc1ccc(C(=O)Nc2ccc3c(c2)B(O)OC3(C)C)cc1 [compound 30, 4-Ethyl-N-(1-hydroxy-3,3-dimethyl-1,3-dihydro-benzo[c][1,2]oxaborol-6-yl)-benzamide], the IC50 at 72 h [1] was > 10 µg/mL and the IC50 [2] was 0.427 µg/mL.

With CCCc1ccc(C(=O)Nc2ccc3c(c2)B(O)OC3(C)C)cc1 [compound 31, N-(1-Hydroxy-3,3-dimethyl-1,3-dihydro-benzo[c][1,2]oxaborol-6-yl)-4-propyl-benzamide] the IC50 at 72 h [1] was > 10 µg/mL and the IC50 [2] was 0.397 µg/mL.

In the case of CCCCc1ccc(C(=O)Nc2ccc3c(c2)B(O)OC3(C)C)cc1 [compound 32, 4-Butyl-N-(1-hydroxy-3,3-dimethyl-1,3-dihydro-benzo[c][1,2]oxaborol-6-yl)-benzamide], the IC50 at 72 h [1] was > 10 µg/mL and the IC50 [2] was 0.349 µg/mL.

With CC1(C)OB(O)c2cc(NC(=O)c3cccc(C(F)(F)F)c3)ccc21 [compound 35, N-(1-Hydroxy-3,3-dimethyl-1,3-dihydro-benzo[c][1,2]oxaborol-6-yl)-3-trifluoromethyl-benzamide] the IC50 at 72 h [1] was > 10 µg/mL and the IC50 [2] was 2.74 µg/mL.

For CC1(C)OB(O)c2cc(NC(=O)c3ccc(C(F)(F)F)cc3)ccc21 [compound 36, N-(1-Hydroxy-3,3-dimethyl-1,3-dihydro-benzo[c][1,2]oxaborol-6-yl)-4-trifluoromethyl-benzamide], the IC50 at 72 h [1] was > 10 µg/mL and the IC50 [2] was 4.05 µg/mL.

In the case of CC1(C)OB(O)c2cc(NC(=O)c3ccccc3F)ccc21 [compound 37, 2-Fluoro-N-(1-hydroxy-3,3-dimethyl-1,3-dihydro-benzo[c][1,2]oxaborol-6-yl)-benzamide], the IC50 at 72 h [1] was > 10 µg/mL and the IC50 [2] was 1.42 µg/mL.

In the case of CC1(C)OB(O)c2cc(NC(=O)c3ccccc3I)ccc21 [compound 40, N-(1-Hydroxy-3,3-dimethyl-1,3-dihydro-benzo[c][1,2]oxaborol-6-yl)-2-iodo-benzamide], the IC50 at 72 h [1] was > 10 µg/mL and the IC50 [2] was 0.599 µg/mL.

In the case of CC1(C)OB(O)c2cc(NC(=O)c3cccc(F)c3)ccc21 [compound 41, 3-Fluoro-N-(1-hydroxy-3,3-dimethyl-1,3-dihydro-benzo[c][1,2]oxaborol-6-yl)-benzamide], the IC50 at 72 h [1] was > 10 µg/mL and the IC50 [2] was > 5 µg/mL.

In the case of CC1(C)OB(O)c2cc(NC(=O)c3cccc(Cl)c3)ccc21 [compound 42, 3-Chloro-N-(1-hydroxy-3,3-dimethyl-1,3-dihydro-benzo[c][1,2]oxaborol-6-yl)-benzamide], the IC50 at 72 h [1] was > 10 µg/mL and the IC50 [2] was 2.12 µg/mL.

With CC1(C)OB(O)c2cc(NC(=O)c3cccc(Br)c3)ccc21 [compound 43, 3-Bromo-N-(1-hydroxy-3,3-dimethyl-1,3-dihydro-benzo[c][1,2]oxaborol-6-yl)-benzamide] the IC50 at 72 h [1] was > 10 µg/mL and the IC50 [2] was 2.2 µg/mL.

In the case of CC1(C)OB(O)c2cc(NC(=O)c3ccc(Cl)cc3)ccc21 [compound 45, 4-Chloro-N-(1-hydroxy-3,3-dimethyl-1,3-dihydro-benzo[c][1,2]oxaborol-6-yl)-benzamide], the IC50 at 72 h [1] was > 10 µg/mL and the IC50 [2] was 3.64 µg/mL.

In the case of COc1ccccc1C(=O)Nc1ccc2c(c1)B(O)OC2(C)C [compound 46, N-(1-Hydroxy-3,3-dimethyl-1,3-dihydro-benzo[c][1,2]oxaborol-6-yl)-2-methoxy-benzamide], the IC50 at 72 h [1] was > 10 µg/mL and the IC50 [2] was 3.01 µg/mL.

With COc1cccc(C(=O)Nc2ccc3c(c2)B(O)OC3(C)C)c1 [compound 47, N-(1-Hydroxy-3,3-dimethyl-1,3-dihydro-benzo[c][1,2]oxaborol-6-yl)-3-methoxy-benzamide] the IC50 at 72 h [1] was > 10 µg/mL and the IC50 [2] was 2.35 µg/mL.

In the case of COc1ccc(C(=O)Nc2ccc3c(c2)B(O)OC3(C)C)cc1 [compound 48, N-(1-Hydroxy-3,3-dimethyl-1,3-dihydro-benzo[c][1,2]oxaborol-6-yl)-4-methoxy-benzamide], the IC50 at 72 h [1] was > 10 µg/mL, the “Selectivity Index (L929 IC50 / T. b. brucei IC50)” value [2] was >9 and the pIC50 [2] was 5.45. The IC50 [2] was 1.11 µg/mL.

For CCOc1ccccc1C(=O)Nc1ccc2c(c1)B(O)OC2(C)C [compound 49, 2-Ethoxy-N-(1-hydroxy-3,3-dimethyl-1,3-dihydro-benzo[c][1,2]oxaborol-6-yl)-benzamide], the IC50 at 72 h [1] was > 10 µg/mL and the IC50 [2] was > 5 µg/mL.

With CCCCCOc1ccc(C(=O)Nc2ccc3c(c2)B(O)OC3(C)C)cc1 [compound 50, N-(1-Hydroxy-3,3-dimethyl-1,3-dihydro-benzo[c][1,2]oxaborol-6-yl)-4-pentyloxy-benzamide] the IC50 at 72 h [1] was > 10 µg/mL and the IC50 [2] was 1.4 µg/mL.

In the case of CC1(C)OB(O)c2cc(NC(=O)c3ccccc3OC(F)(F)F)ccc21 [compound 51, N-(1-Hydroxy-3,3-dimethyl-1,3-dihydro-benzo[c][1,2]oxaborol-6-yl)-2-trifluoromethoxy-benzamide], the IC50 at 72 h [1] was > 10 µg/mL and the IC50 [2] was 1.15 µg/mL.

In the case of CC1(C)OB(O)c2cc(NC(=O)c3cccc(OC(F)(F)F)c3)ccc21 [compound 52, N-(1-Hydroxy-3,3-dimethyl-1,3-dihydro-benzo[c][1,2]oxaborol-6-yl)-3-trifluoromethoxy-benzamide], the IC50 at 72 h [1] was > 10 µg/mL and the IC50 [2] was 2.27 µg/mL.
